# Laboratory results as given in PMC10322718, “Expanding the substrate scope of pyrrolysyl-transfer RNA synthetase enzymes to include non-α-amino acids in vitro and in vivo” (Nature Chemistry, 2023).
# B1: MaFRSA (Methanomethylophilus alvus pyrrolysyl-tRNA synthetase, MaPylRS, N166A V168A) (enzyme)
# chain: MTVKYTDAQIQRLREYGNGTYEQKVFEDLASRDAAFSKEMSVASTDNEKKIKGMIANPSRHGLTQLMNDIADALVAEGFIEVRTPIFISKDALARMTITEDKPLFKQVFWIDEKRALRPMLAPNLYSVMRDLRDHTDGPVKIFEMGSCFRKESHSGMHLEEFTMLALADMGPRGDATEVLKNYISVVMKAAGLPDYDLVQEESDVYKETIDVEINGQEVCSAAVGPHYLDAAHDVHEPWSGAGFGLERLLTIREKYSTVKKGGASISYLNGAKIN
# notes: Pyrrolysyl-tRNA synthetase (PylRS) of Methanomethylophilus alvus with N166A and V168A; construct GSS linker-6xHis-SSG linker-thrombin site-MaFRSA from pET32a-6xHis-thrombin-MaFRSA, tag removed with thrombin; Crystallised with m-CF3-2-benzylmalonate and AMP-PNP; source: E. coli BL21-Gold (DE3)pLysS, purified (TALON, thrombin cleavage, Superdex 200); not shown: 6xHis, N-terminal, cleaved
# Experiments:
# MaPylRS = molecular target: T1, MaPylRS (Methanomethylophilus alvi, UniProt M9SC49, N166A/V168A); assay: X-ray crystal structure, […] Å; type: binding; details: ternary complex with AMP-PNP; active site, two orientations (chains A and B)
# T1 construct: gene MMALV_11280; pET32a, E. coli BL21-Gold(DE3)pLysS, Ni-NTA; for crystals 6xHis-thrombin site N-terminal, tag cut; dimer in crystal
# [1] = molecular target: the molecule itself; assay: crystal structure; MaFRSA with 100 mM m-CF3-2-BMA and 10 mM AMP-PNP, hanging-drop vapour diffusion at 18 °C, 10 mM Tris-HCl pH 7.4, 26% PEG 3,350; space group I4, two copies in the asymmetric unit, 1.8 Å
Molecule,"X-ray crystal structure, 1.8 Å (MaPylRS)",binding result [1]
"O=C(O)C(Cc1cccc(C(F)(F)F)c1)C(=O)O [compound 18, m-CF3-2-BMA]",we solved the crystal structure of MaFRSA bound to both m-CF3-2-BMA and the non-hydrolysable ATP analogue,
B1,,binds
